How the values were obtained:
Homo sapiens [1] = assay: Toxicity in healthy human assessed as occurrence of abdominal pain at 1000 mg, iv administered as single dose as 1 hr iv infusion; type: organism-based, Abdomen; settings: in vivo
[2] = Cmax in healthy human at 1000 mg, iv administered as 1 hr infusion every 8 hrs for 10 days measured on day 10; type: ADME, organism-based; set-up: dose 1000 mg, route intravenous; settings: in vivo
[3] = Half-life in plasma of healthy human 1000 mg administered as single ascending dose, iv for 1 hr infusion; type: ADME, organism-based
[4] = Volume of distribution at steady state in healthy human at 1000 mg, iv administered as single dose as 1 hr iv infusion; type: ADME, organism-based; settings: in vivo
[5] = Tmax in healthy human at 1500 mg, iv administered as single dose as 1 hr iv infusion; type: ADME, organism-based; settings: in vivo
[6] = Renal clearance in healthy human at 2000 mg, iv administered as single dose as 1 hr iv infusion; type: ADME, organism-based, Kidney; settings: in vivo, read-out: CL_renal
[7] = Tmax in healthy human at 2000 mg, iv administered as single dose as 1 hr iv infusion; type: ADME, organism-based; settings: in vivo
[8] = Half-life in plasma of healthy human 1500 mg, iv administered as 1 hr infusion every 12 hrs for 10 days measured on day 10; type: ADME, organism-based
[9] = Cmax in healthy human at 1500 mg, iv administered as single dose as 1 hr iv infusion; type: ADME, organism-based; set-up: dose 1500 mg, route intravenous; settings: in vivo
[10] = Drug recovery in urine of healthy human at 1000 mg, iv administered as single dose as 1 hr iv infusion after 24 hrs; type: ADME, organism-based; settings: read-out: Activity
[11] = Renal clearance in healthy human at 1000 mg, iv administered as 1 hr infusion every 8 hrs for 10 days measured on day 10; type: ADME, organism-based, Kidney; settings: in vivo, read-out: CL_renal
[12] = AUC (0 to infinity) in healthy human at 500 mg, iv administered as 1 hr infusion every 8 hrs for 10 days measured on day 1; type: ADME, organism-based; set-up: dose 500 mg, route intravenous, time infinity; settings: plasma
[13] = Drug recovery in urine of healthy human at 500 mg, iv administered as 1 hr infusion every 8 hrs for 10 days measured on day 1; type: ADME, organism-based; settings: read-out: Activity
[14] = Half-life in plasma of healthy human 250 mg administered as single ascending dose, iv for 1 hr infusion; type: ADME, organism-based
[15] = Renal clearance in healthy human at 1500 mg, iv administered as 1 hr infusion every 12 hrs for 10 days measured on day 1; type: ADME, organism-based, Kidney; settings: in vivo, read-out: CL_renal
[16] = Tmax in healthy human at 1000 mg, iv administered as single dose as 1 hr iv infusion; type: ADME, organism-based; settings: in vivo
[17] = Mean residence time in healthy human at 250 mg, iv administered as single dose as 1 hr iv infusion; type: ADME, organism-based; settings: in vivo
Homo sapiens [18] = assay: Toxicity in healthy human assessed as occurrence of nausea at 1000 mg, iv administered as single dose as 1 hr iv infusion; type: organism-based; settings: in vivo
[19] = Mean residence time in healthy human at 1000 mg, iv administered as 1 hr infusion every 8 hrs for 10 days measured on day 10; type: ADME, organism-based; settings: in vivo
Homo sapiens [20] = assay: Toxicity in healthy human assessed as occurrence of vulvo-vaginal pruritus at 1500 mg, iv administered as single dose as 1 hr iv infusion; type: organism-based; settings: in vivo
Homo sapiens [21] = assay: Toxicity in healthy human assessed as occurrence of headache at 1000 mg, iv administered as single dose as 1 hr iv infusion; type: organism-based; settings: in vivo
[22] = Renal clearance in healthy human at 1500 mg, iv administered as 1 hr infusion every 12 hrs for 10 days measured on day 10; type: ADME, organism-based, Kidney; settings: in vivo, read-out: CL_renal
[23] = Drug recovery in urine of healthy human at 500 mg, iv administered as single dose as 1 hr iv infusion after 24 hrs; type: ADME, organism-based; settings: read-out: Activity
[24] = Drug recovery in urine of healthy human at 500 mg, iv administered as 1 hr infusion every 8 hrs for 10 days measured on day 10; type: ADME, organism-based; settings: read-out: Activity
[25] = Volume of distribution at steady state in healthy human at 500 mg, iv administered as 1 hr infusion every 8 hrs for 10 days measured on day 1; type: ADME, organism-based; settings: in vivo
[26] = Clearance in healthy human at 2000 mg, iv administered as single dose as 1 hr iv infusion; type: ADME, organism-based; settings: in vivo
[27] = Tmax in healthy human at 500 mg, iv administered as single dose as 1 hr iv infusion; type: ADME, organism-based; settings: in vivo
[28] = Half-life in plasma of healthy human 500 mg, iv administered as 1 hr infusion every 8 hrs for 10 days measured on day 1; type: ADME, organism-based
[29] = Mean residence time in healthy human at 500 mg, iv administered as 1 hr infusion every 8 hrs for 10 days measured on day 10; type: ADME, organism-based; settings: in vivo
[30] = Renal clearance in healthy human at 500 mg, iv administered as 1 hr infusion every 8 hrs for 10 days measured on day 10; type: ADME, organism-based, Kidney; settings: in vivo, read-out: CL_renal
[31] = Volume of distribution at steady state in healthy human at 1500 mg, iv administered as 1 hr infusion every 12 hrs for 10 days measured on day 10; type: ADME, organism-based; settings: in vivo
[32] = Cmax in healthy human at 1500 mg, iv administered as 1 hr infusion every 12 hrs for 10 days measured on day 1; type: ADME, organism-based; set-up: dose 1500 mg, route intravenous; settings: in vivo
[33] = Drug recovery in urine of healthy human at 1000 mg, iv administered as 1 hr infusion every 8 hrs for 10 days measured on day 10; type: ADME, organism-based; settings: read-out: Activity
[34] = Drug recovery in urine of healthy human at 1500 mg, iv administered as 1 hr infusion every 12 hrs for 10 days measured on day 1; type: ADME, organism-based; settings: read-out: Activity
[35] = Mean residence time in healthy human at 500 mg, iv administered as 1 hr infusion every 8 hrs for 10 days measured on day 1; type: ADME, organism-based; settings: in vivo
[36] = Tmax in healthy human at 500 mg, iv administered as 1 hr infusion every 8 hrs for 10 days measured on day 10; type: ADME, organism-based; settings: in vivo
[37] = Cmax in healthy human at 1000 mg, iv administered as 1 hr infusion every 8 hrs for 10 days measured on day 1; type: ADME, organism-based; set-up: dose 1000 mg, route intravenous; settings: in vivo
[38] = Tmax in healthy human at 1000 mg, iv administered as 1 hr infusion every 8 hrs for 10 days measured on day 1; type: ADME, organism-based; settings: in vivo
[39] = AUC (0 to infinity) in healthy human at 1000 mg, iv administered as 1 hr infusion every 8 hrs for 10 days measured on day 1; type: ADME, organism-based; set-up: dose 1000 mg, time infinity, route intravenous; settings: plasma
[40] = AUC (0 to infinity) in healthy human at 250 mg, iv administered as single dose as 1 hr iv infusion; type: ADME, organism-based; set-up: dose 250 mg, route intravenous, time infinity; settings: plasma
[41] = Volume of distribution at steady state in healthy human at 500 mg, iv administered as single dose as 1 hr iv infusion; type: ADME, organism-based; settings: in vivo
[42] = Volume of distribution at steady state in healthy human at 1000 mg, iv administered as 1 hr infusion every 8 hrs for 10 days measured on day 10; type: ADME, organism-based; settings: in vivo
[43] = Mean residence time in healthy human at 1500 mg, iv administered as 1 hr infusion every 12 hrs for 10 days measured on day 10; type: ADME, organism-based; settings: in vivo
[44] = Cmax in healthy human at 1500 mg, iv administered as 1 hr infusion every 12 hrs for 10 days measured on day 10; type: ADME, organism-based; set-up: dose 1500 mg, route intravenous; settings: in vivo
[45] = Half-life in plasma of healthy human 1000 mg, iv administered as 1 hr infusion every 8 hrs for 10 days measured on day 1; type: ADME, organism-based

Cn1c(N)c(NC(=O)NCCN)c[n+]1CC1=C(C(=O)O)N2C(=O)[C@@H](NC(=O)/C(=N\OC(C)(C)C(=O)[O-])c3nsc(N)n3)[C@H]2SC1 [CEFTOLOZANE]
Activity (Homo sapiens [1]): Non-toxic
Cmax [2]: 58 µg/mL
half-life [3]: 2.25 h
Vd [4]: 16.3 L
Tmax [5]: 1.03 h
CL renal at 1 h [6]: 92.9 mL/min
Tmax [7]: 1.06 h
half-life [8]: 2.34 h
Cmax [9]: 87.4 µg/mL
dose excreted at 24 h [10]: 85.2%
CL renal [11]: 111 mL/min
AUC(0-inf) [12]: 88100 ng·h/mL
dose excreted at 1 day [13]: 82.9%
half-life [14]: 1.86 h
CL renal [15]: 119 mL/min
Tmax [16]: 1.05 h
MRT [17]: 2.09 h
Activity (Homo sapiens [18]): Non-toxic
MRT [19]: 2.45 h
Activity (Homo sapiens [20]): Non-toxic
Activity (Homo sapiens [21]): Non-toxic
CL renal [22]: 127 mL/min
dose excreted at 24 h [23]: 91.2%
dose excreted at 10 day [24]: 84.6%
Vd [25]: 13.8 L
clearance [26]: 96.9 mL/min
Tmax [27]: 1.03 h
half-life [28]: 2.21 h
MRT [29]: 2.32 h
CL renal [30]: 87.6 mL/min
Vd [31]: 18.1 L
Cmax [32]: 85.4 µg/mL
dose excreted at 10 day [33]: 94.1%
dose excreted at 1 day [34]: 104%
MRT [35]: 2.42 h
Tmax [36]: 0.93 h
Cmax [37]: 52.8 µg/mL
Tmax [38]: 1.03 h
AUC(0-inf) [39]: 149000 ng·h/mL
AUC(0-inf) [40]: 40100 ng·h/mL
Vd [41]: 14.8 L
Vd [42]: 17.1 L
MRT [43]: 2.5 h
Cmax [44]: 82.6 µg/mL
half-life [45]: 2.38 h

Source: ChEMBL document CHEMBL1275247, “Pharmacokinetics and safety of CXA-101, a new antipseudomonal cephalosporin, in healthy adult male and female subjects receiving single- and multiple-dose intravenous infusions” (Antimicrob Agents Chemother, 2010)
